From the supplement of paper PMC10883282
± gives the standard deviation of the averaged measurements.

Columns and labels:
Experiment in all cases: relative viability vs DMSO control (72 h) (fraction); higher = more viable cells
VA-ES-BJ = test system: VA-ES-BJ
In short: (§1)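 Sarcoma cell lines were seeded in 384-well plates at densities chosen for 80–90% confluence, then 24 h later given 2.5 µl of serially diluted compound drawn from source plates spanning 10 mM to 0.0002 mM. They were held 72 h at 37 °C, 5% CO2, with 0.1% DMSO vehicle and a 5 µM positive control included. Relative viability was read with ATPLite as percent growth and averaged over up to triplicate wells. Rescaling placed full at 1 and none at 0.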

SW1353 = test system: SW1353
In short: as §1

HT1080 = test system: HT1080
In short: as §1

RD = test system: RD
In short: as §1

SW684 = test system: SW684
In short: as §1

SK-ES-1 = test system: SK-ES-1
In short: as §1

Which relative viability (VA-ES-BJ; 0.00017 µM) does the source give for `COc1cc(CCc2cc(NC(=O)c3ccc(N4CC(C)NC(C)C4)cc3)n[nH]2)cc(OC)c1` (stereo unspecified) [AZD-4547] here?
Its relative viability is 1.05 ± 0.044.

What about the relative viability (VA-ES-BJ; 0.00051 µM) of the same compound?
The relative viability was 1.01 ± 0.03.

What about the relative viability (VA-ES-BJ; 0.00152 µM) of the same compound?
Its relative viability is 1.03 ± 0.048.

And the relative viability (VA-ES-BJ; 0.00457 µM)?
Its relative viability is 1.02 ± 0.013.

What about the relative viability (VA-ES-BJ; 0.01372 µM) of the same compound?
Its relative viability is 1.01 ± 0.044.

And the relative viability (VA-ES-BJ; 0.04115 µM)?
The relative viability was 0.975 ± 0.028.

What about the relative viability (VA-ES-BJ; 0.1235 µM) of the same compound?
The relative viability was 0.983 ± 0.039.

And the relative viability (VA-ES-BJ; 0.3704 µM)?
Its relative viability is 1.02 ± 0.036.

And the relative viability (VA-ES-BJ; 1.111 µM)?
The relative viability was 1.07 ± 0.069.

And the relative viability (VA-ES-BJ; 3.333 µM)?
Its relative viability is 0.987 ± 0.017.

What about the relative viability (VA-ES-BJ; 10 µM) of the same compound?
The relative viability was 0.681 ± 0.032.

What about the relative viability (SW1353; 0.00017 µM) of the same compound?
The relative viability was 1.06 ± 0.011.

What about the relative viability (SW1353; 0.00051 µM) of the same compound?
The relative viability was 1.03 ± 0.021.

And the relative viability (SW1353; 0.00152 µM)?
The relative viability was 1.03 ± 0.021.

And the relative viability (SW1353; 0.00457 µM)?
Its relative viability is 0.981 ± 0.056.

What about the relative viability (SW1353; 0.01372 µM) of the same compound?
The relative viability was 0.938 ± 0.032.

And the relative viability (SW1353; 0.04115 µM)?
The relative viability was 0.886 ± 0.043.

What about the relative viability (SW1353; 0.1235 µM) of the same compound?
The relative viability was 0.893 ± 0.043.

And the relative viability (SW1353; 0.3704 µM)?
The relative viability was 0.849 ± 0.067.

And the relative viability (SW1353; 1.111 µM)?
Its relative viability is 0.821 ± 0.026.

And the relative viability (SW1353; 3.333 µM)?
The relative viability was 0.829 ± 0.051.

What about the relative viability (SW1353; 10 µM) of the same compound?
The relative viability was 0.595 ± 0.027.

What about the relative viability (HT1080; 0.00017 µM) of the same compound?
Its relative viability is 1.085 ± 0.008.

What about the relative viability (HT1080; 0.00051 µM) of the same compound?
Its relative viability is 1.1 ± 0.025.

What about the relative viability (HT1080; 0.00152 µM) of the same compound?
The relative viability was 1.08 ± 0.045.

And the relative viability (HT1080; 0.00457 µM)?
The relative viability was 1.07 ± 0.066.

What about the relative viability (HT1080; 0.01372 µM) of the same compound?
Its relative viability is 1.06 ± 0.04.

What about the relative viability (HT1080; 0.04115 µM) of the same compound?
The relative viability was 1.01 ± 0.036.

What about the relative viability (HT1080; 0.1235 µM) of the same compound?
Its relative viability is 1.04 ± 0.047.

And the relative viability (HT1080; 0.3704 µM)?
Its relative viability is 1.08 ± 0.051.

What about the relative viability (HT1080; 1.111 µM) of the same compound?
The relative viability was 1.04 ± 0.044.

What about the relative viability (HT1080; 3.333 µM) of the same compound?
Its relative viability is 1.04 ± 0.03.

And the relative viability (HT1080; 10 µM)?
The relative viability was 0.859 ± 0.026.

What about the relative viability (RD; 0.00017 µM) of the same compound?
The relative viability was 1.03 ± 0.03.

And the relative viability (RD; 0.00051 µM)?
Its relative viability is 1.08 ± 0.022.

What about the relative viability (RD; 0.00152 µM) of the same compound?
The relative viability was 1.07 ± 0.028.

And the relative viability (RD; 0.00457 µM)?
The relative viability was 1.07 ± 0.022.

What about the relative viability (RD; 0.01372 µM) of the same compound?
The relative viability was 1.08 ± 0.033.

And the relative viability (RD; 0.04115 µM)?
The relative viability was 1.1 ± 0.025.

And the relative viability (RD; 0.1235 µM)?
The relative viability was 1.063 ± 0.0057.

And the relative viability (RD; 0.3704 µM)?
Its relative viability is 1.08 ± 0.022.

And the relative viability (RD; 1.111 µM)?
Its relative viability is 1.06 ± 0.068.

What about the relative viability (RD; 3.333 µM) of the same compound?
Its relative viability is 0.858 ± 0.011.

And the relative viability (RD; 10 µM)?
The relative viability was 0.419 ± 0.018.

What about the relative viability (SW684; 0.00017 µM) of the same compound?
The relative viability was 1.11 ± 0.047.

What about the relative viability (SW684; 0.00051 µM) of the same compound?
Its relative viability is 1.1 ± 0.059.

What about the relative viability (SW684; 0.00152 µM) of the same compound?
Its relative viability is 1.12 ± 0.019.

And the relative viability (SW684; 0.00457 µM)?
Its relative viability is 1.14 ± 0.033.

What about the relative viability (SW684; 0.01372 µM) of the same compound?
Its relative viability is 1.07 ± 0.019.

What about the relative viability (SW684; 0.04115 µM) of the same compound?
The relative viability was 1.07 ± 0.033.

And the relative viability (SW684; 0.1235 µM)?
The relative viability was 1.06 ± 0.043.

And the relative viability (SW684; 0.3704 µM)?
The relative viability was 1.06 ± 0.031.

And the relative viability (SW684; 1.111 µM)?
The relative viability was 1.08 ± 0.051.

And the relative viability (SW684; 3.333 µM)?
The relative viability was 1.08 ± 0.04.

And the relative viability (SW684; 10 µM)?
Its relative viability is 0.999 ± 0.051.

And the relative viability (SK-ES-1; 0.00017 µM)?
The relative viability was 1.02 ± 0.033.

What about the relative viability (SK-ES-1; 0.00051 µM) of the same compound?
Its relative viability is 1.02 ± 0.039.

What about the relative viability (SK-ES-1; 0.00152 µM) of the same compound?
The relative viability was 1.01 ± 0.067.

And the relative viability (SK-ES-1; 0.00457 µM)?
The relative viability was 1 ± 0.056.

And the relative viability (SK-ES-1; 0.01372 µM)?
The relative viability was 1.05 ± 0.1.

What about the relative viability (SK-ES-1; 0.04115 µM) of the same compound?
The relative viability was 0.947 ± 0.083.

And the relative viability (SK-ES-1; 0.1235 µM)?
Its relative viability is 0.928 ± 0.088.

And the relative viability (SK-ES-1; 0.3704 µM)?
Its relative viability is 0.878 ± 0.017.

And the relative viability (SK-ES-1; 1.111 µM)?
The relative viability was 0.821 ± 0.04.

What about the relative viability (SK-ES-1; 3.333 µM) of the same compound?
The relative viability was 0.483 ± 0.024.

And the relative viability (SK-ES-1; 10 µM)?
The relative viability was 0.141 ± 0.004.
